This note sets out measurements from patent US20250050042A1, “DRY POWDER FORMULATIONS FILLED IN AN INHALER WITH IMPROVED RESISTANCE TO HUMIDITY” (CHIESI FARMACEUTICI S.P.A., priority 2021, published 2025).

Where a name gives a salt, the structure may show the parent alone.

The nature of data set [1]: In-use stability of aerosol performance (FPM drop, NGI) on storage at 30° C. and 75% relative humidity. In kind it is physicochemical. The settings on record: in use at 30° C./75%.
A short description of data set [2]: Aerosol performance by Next Generation Impactor (Example 4). The arrangement: MDD: unit not given beside the values. In kind it is physicochemical. The settings on record: mean; for FPM: particles equal to or lower than 5.0 micron.
The mark [3] stands for this setting: second block of Table 1 without sub-heading (co-micronization formulation), T = 0 + 1 M.
[4] abbreviates: second block of Table 1 without sub-heading (co-micronization formulation), T = 0 + 2 M.
Where [5] appears, read: second block of Table 1 without sub-heading (co-micronization formulation), T = 0 + 3 M.
[6] abbreviates: simple mixing process formulation, T = 0 + 1 M, mean values.
The mark [7] stands for this setting: simple mixing process formulation, T = 0 + 1.5 M, mean values.
The mark [8] stands for this setting: simple mixing process formulation, T = 0 + 2 M, mean values.
The mark [9] stands for this setting: simple mixing process formulation, T = 0 + 3 M, mean values.
The mark [10] stands for this setting: Sample A (coarse lactose batch A).
[11] abbreviates: Sample A (coarse lactose batch A, tapped density 0.72).
Where [12] appears, read: Sample B (coarse lactose batch B).
Where [13] appears, read: Sample B (coarse lactose batch B, tapped density 0.69).

As to `CCC(=O)OCC(=O)[C@@]1(OC(=O)CC)[C@@H](C)C[C@H]2[C@@H]3CCC4=CC(=O)C=C[C@]4(C)[C@@]3(Cl)[C@@H](O)C[C@@]21C` [BDP, (8S,9R,10S,11S,13S,14S,16S,17R)-9-chloro-11-hydroxy-10,13,16-trimethyl-3-oxo-17-[2-(propionyloxy)acetyl]-6,7,8,9,10,11,12,13,14,15,16,17-dodecahydro-3H-cyclopenta[a]phenanthren-17-yl propionate], the “FPM drop (%)” value is reported as −10.4% in data set [1] (setting [3]); −20.3% in data set [1] (setting [4]); −19.6% in data set [1] (setting [5]); −22.1% in data set [1] (setting [6]); −30.5% in data set [1] (setting [7]); −26.3% in data set [1] (setting [8]). Moreover, the “FPM drop (%)” value in data set [1] (setting [9]) is −30.2%. Further, the DD in data set [2] (setting [10]) is on record as 90.4; in data set [2] (setting [12]), 88.6. In addition, the FPF came out at 45% in data set [2] (setting [10]) and 33.4% in data set [2] (setting [12]). Also, the MDD stood at 92.4 in data set [2] (setting [10]) and 88.5 in data set [2] (setting [12]). Also, the results for the FPM in data set [2] (setting [11]) and in data set [2] (setting [13]) were 41.6 and 29.5, respectively.

In data set [2] (setting [10]), `COc1ccc(CC(C)NCC(O)c2ccc(O)c(NC=O)c2)cc1` (centres unmarked) [FF, formoterol fumarate dihydrate] had a DD of 5.6, an FPF of 48.4% and an MDD of 5.6. In data set [2] (setting [11]), this molecule yielded an FPM of 2.7. In data set [2] (setting [12]), this molecule returned a DD of 5.4, an FPF of 36.8% and an MDD of 5.4. The FPM in data set [2] (setting [13]) worked out at 2.0.

On to `C[N+]1(C)CCC(OC(=O)C(O)(c2ccccc2)C2CCCC2)C1` (centres unmarked) [GB, glycopyrronium bromide], for which the “FPM drop (%)” value was −7.8% in data set [1] (setting [3]); −19.1% in data set [1] (setting [4]); −20.7% in data set [1] (setting [5]); −24.5% in data set [1] (setting [6]); −36.5% in data set [1] (setting [7]); −29.5% in data set [1] (setting [8]). Moreover, the “FPM drop (%)” value in data set [1] (setting [9]) is −33.1%. Moreover, the DD in data set [2] (setting [10]) is reported as 11.4; in data set [2] (setting [12]) it was 11.0. Besides, the figures for the FPF in data set [2] (setting [10]) and in data set [2] (setting [12]) were 41.3% and 30.9%, respectively. Further, the MDD in data set [2] (setting [10]) is 11.7; in data set [2] (setting [12]) it was 11.1. Moreover, the figures for the FPM in data set [2] (setting [11]) and in data set [2] (setting [13]) were 4.8 and 3.4, respectively.
